Here are results for 17 compounds from ChEMBL document CHEMBL3351504, “Discovery and structure-based optimization of adenain inhibitors” (ACS Med Chem Lett, 2014).

The nature of data set [1]: Inhibition of human adenovirus serotype 8 adenain protease expressed in Escherichia coli […] (DE3) using Ac-WLRGG*ARC(PT14)-NH2 as substrate by FLT assay. The arrangement: species or system Human adenovirus 8.
A short description of data set [2]: Inhibition of human adenovirus serotype 5 adenain protease expressed in Escherichia coli […] (DE3) using Ac-WLRGG*ARC(PT14)-NH2 as substrate by FLT assay. Details: species or system Human adenovirus 5.
The nature of data set [3]: Permeability from apical to basolateral side in human Caco2 cells. It counts as ADME, cell-based. The conditions noted are these: Caco-2, read-out: permeability. A general note: Caco-2 monolayers are a common model of the intestinal barrier.
Data set [4] in a line: Permeability from basolateral to apical side in human Caco2 cells. Format: ADME, cell-based. Conditions: Caco-2, read-out: permeability.
Data set [5] is described as follows: High throughput equilibrium solubility at pH 6.8. Format: physicochemical. The conditions noted are these: buffer.
The next data set relates to Human adenovirus 5. Description: Antiviral activity against human adenovirus 5 infected in HEK293 cells assessed as reduction in viral induced cytopathogenicity incubated for 5 days by Celltiter-Glo luminescent cell viability assay. It counts as functional, organism-based. Conditions: Human mastadenovirus C, HEK293, 120 h. (In general: Protection from cytopathic effect is a common read-out in antiviral testing.)

Data set [6] can be described thus: Inhibition of adenovirus adenain. The arrangement: species or system unidentified adenovirus.

Each structure is given as a SMILES string. ≈ marks a conversion by molar mass, not a printed value.

As usually defined, the IC50 is the concentration at which inhibition is half-maximal. Higher therefore signals weaker potency in that assay. By solubility (thermodynamic) is commonly meant solubility found after equilibrating the solid with the medium. What is called EC50 is the concentration needed to bring the measured effect to its halfway point. For the compound `COC[C@H](NC(=O)Cc1cc(Cl)cc(Cl)c1)C(=O)NCc1ccnc(C#N)n1`, the IC50 stood at 4 nM in data set [1] and 2 nM in data set [2]. In addition, the Papp A→B in data set [3] was found to be 23.2 ×10⁻⁶ cm/s. The Papp B→A in data set [4] turned out to be 14.8 ×10⁻⁶ cm/s. The compound also showed a solubility (thermodynamic) in data set [5] of 52 µM (≈ 22 µg/mL). In addition, the EC50 in the data set with Human adenovirus 5 turned out to be 3.2 µM.
Turning to `N#CCNC(=O)CNC(=O)[C@H](Cc1ccccc1)NC(=O)[C@@H](O)c1cccc(Cl)c1`, the IC50 in data set [1] was 70 nM. Also, the Papp A→B in data set [3] turned out to be 2.2 ×10⁻⁶ cm/s. In data set [4], the Papp B→A stood at 3.2 ×10⁻⁶ cm/s.
Take `C[C@@H](O)[C@H](NC(=O)Cc1cc(Cl)cc(Cl)c1)C(=O)NCc1ccnc(C#N)n1`: the IC50 turned out to be 3 nM in data set [1] and 2 nM in data set [2]. The Papp A→B in data set [3] came out at 12.2 ×10⁻⁶ cm/s. Besides, the Papp B→A in data set [4] stood at 14.1 ×10⁻⁶ cm/s. The same compound came in with a thermodynamic solubility in data set [5] of 556 µM (≈ 235 µg/mL). Further, in the data set with Human adenovirus 5, the EC50 was 1.2 µM.
As to `CC(C)(C)[C@H](NC(=O)Cc1cc(Cl)cc(Cl)c1)C(=O)NCC(=O)NCC#N`, the IC50 came to 80 nM in data set [1] and 40 nM in data set [2]. Besides, in data set [3], the Papp A→B was 5.4 ×10⁻⁶ cm/s. Also, in data set [4], the Papp B→A turned out to be 23.8 ×10⁻⁶ cm/s. The same compound had a thermodynamic solubility in data set [5] of 85 µM (≈ 35.1 µg/mL).
For `N#CCNC(=O)CNC(=O)C(Cc1ccccn1)NC(=O)Cc1cc(Cl)cc(Cl)c1` (racemic) the same measures were 360 nM, 140 nM, 0.7 ×10⁻⁶ cm/s, 15 ×10⁻⁶ cm/s and 111 µM (≈ 49.8 µg/mL).
Take `CC(C(=O)N[C@@H](Cc1ccccc1)C(=O)NCC(=O)NCC#N)c1cc(Cl)cc(Cl)c1` (mixture of isomers): the figures for the IC50 in data set [1] and in data set [2] were 30 nM and 6 nM, respectively. This compound had a thermodynamic solubility in data set [5] of 50 µM.
For the compound `CC[C@H](C(=O)N[C@H](C(=O)NCC(=O)NCC#N)[C@@H](C)O)c1cc(Cl)cc(Cl)c1`, the figures for the IC50 in data set [1] and in data set [2] were 30 nM and 5 nM, respectively. For the same compound, the Papp A→B in data set [3] was found to be 2.6 ×10⁻⁶ cm/s. For the same compound, the Papp B→A in data set [4] stood at 18 ×10⁻⁶ cm/s. Moreover, the thermodynamic solubility in data set [5] worked out at 1000 µM (≈ 429 µg/mL).
`N#CCNC(=O)CNC(=O)[C@H](Cc1ccccc1)NC(=O)Cc1cccc(Cl)c1`: the figures for the IC50 in data set [1] and in data set [2] were 380 nM and 280 nM, respectively. Besides, the Papp A→B in data set [3] stood at 1.2 ×10⁻⁶ cm/s. The Papp B→A in data set [4] came to 7.4 ×10⁻⁶ cm/s. The compound also yielded a solubility (thermodynamic) in data set [5] of 150 µM (≈ 61.9 µg/mL).
`C[C@@H](O)[C@H](NC(=O)Cc1cc(Cl)cc(Cl)c1)C(=O)NCC(=O)NCC#N`: the IC50 is 80 nM in data set [1] and 30 nM in data set [2]. In addition, in data set [5], the thermodynamic solubility was 121 µM (≈ 48.6 µg/mL).
With `CC[C@H](C)[C@H](NC(=O)C(c1cc(Cl)cc(Cl)c1)N(C)C)C(=O)NCc1ccnc(C#N)n1` (mixture of isomers), the IC50 in data set [1] came out at 60 nM; in data set [2], 20 nM. Also, the Papp A→B in data set [3] amounted to 17.8 ×10⁻⁶ cm/s. Further, the Papp B→A in data set [4] came out at 10.1 ×10⁻⁶ cm/s. The same compound showed a thermodynamic solubility in data set [5] of 61 µM. Further, the EC50 in the data set with Human adenovirus 5 was found to be 6.7 µM.
Consider `N#CCNC(=O)CNC(=O)[C@H](Cc1ccccc1)NC(=O)Cc1cc(Cl)cc(Cl)c1`, for which the results for the IC50 in data set [1] and in data set [2] were 70 nM and 40 nM, respectively. In addition, the Papp A→B in data set [3] was 1.2 ×10⁻⁶ cm/s. In addition, in data set [4], the Papp B→A came out at 8.1 ×10⁻⁶ cm/s. This compound also displayed a solubility (thermodynamic) in data set [5] of 30 µM (≈ 13.4 µg/mL).
Regarding `CC[C@H](C)[C@H](NC(=O)[C@@H](O)c1cc(Cl)cc(Cl)c1)C(=O)NCc1ccnc(C#N)n1`, the IC50 in data set [1] amounted to 20 nM; in data set [2], 8 nM. Moreover, the Papp A→B in data set [3] came to 18.3 ×10⁻⁶ cm/s. Besides, the Papp B→A in data set [4] stood at 11.3 ×10⁻⁶ cm/s. This compound also displayed a solubility (thermodynamic) in data set [5] of 236 µM (≈ 106 µg/mL). Also, the EC50 in the data set on Human adenovirus 5 amounted to 7.2 µM.
`N#Cc1ncc(C(=O)NCc2ccccc2)cn1` had an IC50 in data set [6] of 24 µM. This lies in the double-digit micromolar range.
With `CC[C@H](C)[C@H](NC(=O)[C@@H](O)c1cc(Cl)cc(Cl)c1)C(=O)NCC(=O)NCC#N`, the IC50 in data set [1] and in data set [2] was 50 nM in each case. In data set [3], the Papp A→B is 3 ×10⁻⁶ cm/s. In addition, the Papp B→A in data set [4] worked out at 28 ×10⁻⁶ cm/s.
Turning to `N#CCNC(=O)CNC(=O)[C@H](CN)NC(=O)Cc1cc(Cl)cc(Cl)c1`, the IC50 stood at 80 nM in data set [1] and 40 nM in data set [2]. The Papp A→B in data set [3] came out at 1 ×10⁻⁶ cm/s. Besides, the Papp B→A in data set [4] worked out at 1.2 ×10⁻⁶ cm/s. In data set [5], this compound gave a solubility (thermodynamic) of 891 µM (≈ 344 µg/mL).
As to `CS(=O)(=O)N[C@H](C(=O)N[C@@H](Cc1ccccc1)C(=O)NCC(=O)NCC#N)c1cccc(Cl)c1`, the IC50 in data set [6] was found to be 0.04 µM; in data set [1], 40 nM; in data set [2] it was 30 nM. In data set [3], the Papp A→B turned out to be 1.2 ×10⁻⁶ cm/s. In addition, the Papp B→A in data set [4] came out at 7.5 ×10⁻⁶ cm/s. Further, the thermodynamic solubility in data set [5] is 170 µM (≈ 86 µg/mL).
With `CC[C@H](C(=O)N[C@H](C(=O)NCC(=O)NCC#N)C(C)(C)C)c1cc(Cl)cc(Cl)c1`, the IC50 came to 20 nM in data set [1] and 10 nM in data set [2]. Besides, in data set [3], the Papp A→B worked out at 7.3 ×10⁻⁶ cm/s. For the same compound, in data set [4], the Papp B→A stood at 12.2 ×10⁻⁶ cm/s. Besides, the solubility (thermodynamic) in data set [5] came out at 5 µM (≈ 2.21 µg/mL). The EC50 in the data set with Human adenovirus 5 came to 2.5 µM.
